pEC50: −log10 of the molar value.
System: GABA-A receptor
Experiment: block of evoked GABA-A receptor currents in layer […] pyramidal neurons

| Compound | pEC50 |
| --- | --- |
| COc1ccc([N+](=O)[O-])c2c1CCN2C(=O)CC[C@H](N)C(=O)O [MNI-Glu] | 3.98 |
| DEAC450-Glu [compound 7] | ~4.48 |
| RuBi-Glu | 5.11 |
